The first experiment addresses T1, human glucocorticoid receptor-α [GRX] isoform (Homo sapiens, UniProt P04150).
T1 construct: purchased Ligand Pharmaceuticals (San Diego, CA); host or cells: insect SF21 cells (baculovirus)
T1 sequence (P04150 1-777): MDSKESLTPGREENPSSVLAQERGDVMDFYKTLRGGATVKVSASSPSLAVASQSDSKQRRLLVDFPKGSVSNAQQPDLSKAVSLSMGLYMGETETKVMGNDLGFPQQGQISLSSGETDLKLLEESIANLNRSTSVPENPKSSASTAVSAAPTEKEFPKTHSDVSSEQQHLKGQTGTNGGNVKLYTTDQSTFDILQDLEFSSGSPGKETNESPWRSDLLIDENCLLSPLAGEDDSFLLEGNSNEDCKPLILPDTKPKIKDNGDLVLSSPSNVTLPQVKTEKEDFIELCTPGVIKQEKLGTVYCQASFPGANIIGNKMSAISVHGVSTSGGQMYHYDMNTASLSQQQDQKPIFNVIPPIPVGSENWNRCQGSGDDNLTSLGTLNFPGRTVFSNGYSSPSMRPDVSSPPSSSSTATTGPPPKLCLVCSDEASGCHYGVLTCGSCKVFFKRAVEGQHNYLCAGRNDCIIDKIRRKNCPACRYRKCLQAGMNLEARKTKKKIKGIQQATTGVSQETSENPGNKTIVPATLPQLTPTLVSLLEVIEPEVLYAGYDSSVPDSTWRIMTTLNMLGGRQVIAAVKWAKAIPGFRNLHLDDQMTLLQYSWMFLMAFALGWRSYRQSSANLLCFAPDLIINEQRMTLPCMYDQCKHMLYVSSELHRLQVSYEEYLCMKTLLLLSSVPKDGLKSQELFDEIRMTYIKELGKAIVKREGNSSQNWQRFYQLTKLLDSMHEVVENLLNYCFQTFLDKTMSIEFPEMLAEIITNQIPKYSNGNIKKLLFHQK
The experiment in a line: glucocorticoid receptor (GR) cytosol binding assay, [3H]-dexamethasone competition.
Settings: not given
From the text: For glucocorticoid receptor (OR) cytosol binding assays, the procedure described in Anal. […] Briefly, cytosol preparations of human glucocorticoid receptor-α [GRX] isoform and human progesterone receptor-A [PRA] isoform were obtained from Ligand Pharmaceuticals (San Diego, CA). Both receptor cDNAs were cloned into baculovirus expression vectors and expressed in insect SF21 cells. […] Glass fiber type C multiscreen MAFC NOB plates were from Millipore ( Burlington, MA). Hydroxyapatide Bio-Gel HTP gel was obtained from Bio-Rad Laboratories (Hercules. CA). Tris(hydroxymethyl)aminomethane (Tris), ethylenediaminetetraacetic acid (EDTA), glycerol, dithiothreitol (DTT) and sodium moylybdate were obtained from Sigma Chemicals (St. Louis, MO). Microscint-20 scintillation fluid was obtained from Packard Instrument (Meriden, CT). […] GRX and PRA binding reactions were performed in Millipore Multiscreen plates. […] Specific binding was defined as the difference between binding of [^3H]Dex in the absence and in the presence of 1µM unlabeled Dex. After an overnight incubation, 50 µL of hydroxyapatite (25 % weight/volume) slurry were added to each well and plates were incubated for 10 min at 4 °C in a plate shaker. Plates were suctioned with a Millipore vacuum manifold and each well was rinsed with 300 µL of ice-cold binding buffer. A 250 µL aliquot of Packard Microscint-20 was added to each well and the wells were shaken at room temperature for 20 minutes. The amount of radioactivity was determined with a Packard TopCount plate reader.
As a reminder, the Ki is a measure of affinity in units of concentration, obtained from inhibition or displacement. With `CNc1ccc(C(c2ccc(N(C)C)cc2)c2cc([N+](=O)[O-])ccc2Cl)cc1` (stereo not shown) [Example 39, 4'-dimethylamino-4"-methylamino-2-chloro-5-nitrotriphenylmethane], the affinity, expressed as Ki, was 127 nM.

The compound `CN(C)c1ccc(C(c2ccc(N(C)C)cc2)c2cc(Cl)ccc2Cl)cc1` [Example 24, 4',4" bis(dimethylamino)-2,5-dichlorotriphenylmethane] came in with a Ki of 306 nM.

`CN(C)c1ccc(C(c2ccc(N(C)CCO)cc2)c2cc([N+](=O)[O-])ccc2Cl)cc1` (stereo not shown) [Example 42, 4'-dimethylamino-4"-(N-methyl-N-(2-hydroxyethyl)amino)-2-chloro-5-nitrotriphenylmethane] displayed a Ki of 109 nM.

For the compound `CC(=O)OCCN(C)c1ccc(C(c2ccc(N(C)C)cc2)c2cc([N+](=O)[O-])ccc2Cl)cc1` (stereo not shown) [Example 51, 4'-dimethylamino-4"-(N-methyl-N-(2-acetoxyethyl)amino)-2-chloro-5-nitrotriphenylmethane], affinity was put at a Ki of 167 nM.

Still in this experiment, the particulars now being: [3H]-Dex ~0.9 nM, GRX cytosol, 4 °C overnight; Cheng-Prusoff; read-out: Ki (nM) GR.
`CN(CCO)c1ccc(C(c2ccc(N(C)CCO)cc2)c2cc([N+](=O)[O-])ccc2Cl)cc1` [Example 32, 4',4" bis(N-(2-hydroxyethyl) N-methylamino)-2-chloro-5-nitrotriphenylmethane]: the Ki was 136 nM.

Take `O=[N+]([O-])c1ccc(Cl)c(C(c2ccc(NCc3ccccc3)cc2)c2ccc(NCc3ccccc3)cc2)c1` [Example 36, 4',4" bis(N-benzylamino)-2-chloro-5-nitrotriphenylmethane]: the inhibitory constant (Ki) was 38 nM.

Regarding `CN(C)c1ccc(C(Oc2ccccc2)c2cc([N+](=O)[O-])ccc2Cl)cc1` (stereo not shown) [Example 52, phenyl-[(4'-dimethylaminophenyl)-(2-chloro-5-nitrophenyl)methyl] ether], the Ki worked out at 733 nM.

For `CNc1ccc(C(c2ccc(NC)cc2)c2cc([N+](=O)[O-])ccc2Cl)cc1` [Example 23, 4',4" bis(methylamino)-2-chloro-5-nitrotriphenylmethane], the Ki amounted to 60 nM.

As for `CC(=O)OCCN(C)c1ccc(C(c2ccc(N(C)CCOC(C)=O)cc2)c2cc([N+](=O)[O-])ccc2Cl)cc1` [Example 31, 4',4" bis(N-(2-acetoxyethyl) N-methylamino)-2-chloro-5-nitrotriphenylmethane], the Ki is 145 nM.

For the compound `CN(C)c1ccc(C(c2ccc(N(C)C)cc2)c2cc([N+](=O)[O-])ccc2Cl)cc1` [Example 1, 4',4" bis(dimethylamino)-2-chloro-5-nitrotriphenylmethane], the Ki was determined as 272 nM.

As for `CNc1ccc(C(c2ccc(N(C)CCOC(C)=O)cc2)c2cc([N+](=O)[O-])ccc2Cl)cc1` (stereo not shown) [Example 49, 4'-methylamino-4"-(N-(2-acetoxyethyl)-N-methylamino)-2-chloro-5-nitrotriphenylmethane], the Ki was found to be 135 nM.

As to `CN(C)c1ccc(C(Sc2ccccc2)c2cc([N+](=O)[O-])ccc2Cl)cc1` (stereo not shown) [Example 54, phenyl-[(4'-dimethylaminophenyl)-(2-chloro-5-nitrophenyl)methyl]thioether], the Ki came out at 227 nM.

With `CNc1ccc(C(c2ccc(NC)cc2)c2cc(Cl)ccc2Cl)cc1` [Example 27, 4',4" bis(methylamino)-2,5-dichlorotriphenylmethane], the Ki is 71 nM.

Values taken from EP1100483B1, “GLUCOCORTICOID-SELECTIVE ANTI-INFLAMMATORY AGENTS” (Abbott Laboratories, priority 1998, dated 2000).
